Key:
IRE1α RNase = IRE1α RNase (Homo sapiens (Human), UniProt O75460); experiment: Inhibition of RNase activity of IRE1α; format: biochemical; settings: 0.325 nM enzyme, 100 nM substrate, 20 minutes at room temperature
Experimental: The RNase reactions were performed in 384 well black ProxiPlate-384 Plus plates (PERKIN Elmer) using 50 mM Tris assay buffer with 0.5 mM MgCl2, 10 mM KCl, 0.03 % Tween, 2 mM DTT and 1% DMSO. Test compounds were prepared on the day of assay and dispensed using D300 digital dispenser as a 10-point ½ log dilution series in duplicate, normalized to a final DMSO concentration of […]. Test compounds were pre-incubated for 30 min at room temperature with IRE1α kinase (E31-11G from Signal Chem) in 2.5 µL of assay buffer. Then 2.5 µl of assay buffer containing substrate (5′ Alexa Fluor 647 - rCrArUrGrUrC rCrGrCrArGrCrGrCrArUrG - Iowa Black RQ quencher 3′) (SEQ ID NO:1) added, giving a final concentration of enzyme of 0.325 nM and of substrate of 100 nM. After 20 minutes incubation at room temperature the reactions were stopped by added 5 µL of 5 M urea, incubated at room temperature for 10 minutes and fluorescence measured on a plate reader (EnVision, PerkinElmer). IC50 values calculated by fitting a sigmoidal curve to percent inhibition of control versus compound concentration.

XBP1 = experiment: Cellular XBP1 splicing assay (NanoLuc luciferase reporter); format: cell-based; settings: Homo sapiens; ARPE-19 cells stably expressing XBP1-nano-luciferase; thapsigargin 150 nM, 4 hour incubation
Experimental: ARPE-19 cells stably expressing XBP1 (a.a. 1-376) with nano-luciferase gene sequence linked so it is in frame when XBP1 is spliced, were cultured in F12 media, 10 % FBS, 0.044% sodium bicarbonate, 150 µg/ml hygromycin B and seeded for assays at 5,000 cells in 384 well plates in culture media without hygromycin B and incubated at 37° C./5% CO2. After overnight incubation test compounds were added to the cell plate in a 10-point ½ log dilution series in duplicate (final DMSO concentration 0.117 %). After further incubation of 30 minutes thapsigargin was added (final concentration 150 nM) and then another 4 hour incubation. A NanoLuc luciferase assay (Promega) was used according to the manufacturer’s instructions to detect the luciferase and luminescence measured on a luminometer (EnVision, PerkinElmer). IC50 values calculated by fitting a sigmoidal curve to percent inhibition of control of compound concentration.

IRE1α kinase = IRE1α kinase (Homo sapiens (Human), UniProt O75460); experiment: Inhibition of kinase activity of IRE1α (ADP-Glo); format: biochemical; settings: 5 nM IRE1α kinase, 100 µM ATP, 4 hours at room temperature
Experimental: The kinase reactions were performed in 384 well white ProxiPlate-384 Plus plates (PERKIN Elmer 6008280) using 25 mM MOPS assay buffer with 1 mM dithiothreitol, 25 mM MgCl2, 12.5 mM β-glycerophosphate, 5 mM EGTA, and 50 µg/mL BSA. Test compounds were prepared on the day of assay and dispensed using D300 digital dispenser as a 10-point ½ log dilution series in duplicate, normalized to a final DMSO concentration of 3%. Test compounds were pre-incubated for 30 min at room temperature with 10 nM IRE1α kinase (E31-11G from Signal Chem) in 2.5 µL of assay buffer and the reaction started by addition of 2.5 µL of ATP in assay buffer, to give a final ATP concentration of 100 µm and 5 nM IRE1α kinase. After 4 hours incubation at room temperature the reactions were stopped and the kinase activity determined using the ADP-Glo™ reagent from Promega, according to the manufacturer’s instructions. Luminescence was measured on a luminometer (EnVision, PerkinElmer) and IC50 values calculated by fitting a sigmoidal curve to percent inhibition of control versus Log10 of compound concentration.

Sequence of IRE1α RNase (O75460 468-977): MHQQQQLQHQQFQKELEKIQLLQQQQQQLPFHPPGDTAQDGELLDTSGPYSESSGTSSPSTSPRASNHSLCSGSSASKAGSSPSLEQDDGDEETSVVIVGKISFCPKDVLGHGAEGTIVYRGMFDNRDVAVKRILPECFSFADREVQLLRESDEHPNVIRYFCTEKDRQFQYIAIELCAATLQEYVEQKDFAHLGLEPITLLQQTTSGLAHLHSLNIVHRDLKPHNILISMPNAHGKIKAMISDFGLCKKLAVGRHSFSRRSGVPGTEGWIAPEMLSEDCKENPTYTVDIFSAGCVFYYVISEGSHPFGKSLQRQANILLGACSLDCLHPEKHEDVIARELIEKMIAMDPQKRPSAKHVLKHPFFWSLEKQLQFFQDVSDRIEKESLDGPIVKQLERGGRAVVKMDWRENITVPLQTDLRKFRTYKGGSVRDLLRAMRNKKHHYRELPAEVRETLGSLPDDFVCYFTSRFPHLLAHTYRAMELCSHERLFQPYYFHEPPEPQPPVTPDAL
Sequence of IRE1α kinase (O75460 468-977): as above

IC50 (IRE1α RNase) [nM] | IC50 (XBP1) [nM] | IC50 (IRE1α kinase) [nM] | SMILES
– | 7.2 | – | CCOc1ccc(F)c(S(=O)(=O)Nc2cc(F)c(-c3nn(C(C)C)c4c3c(N)ncc4[C@H]3CC[C@H](N4CCOCC4)CC3)cc2F)c1 [Compound A15, N-(4-(4-amino-1-isopropyl-7-((1r,4r)-4-morpholinocyclohexyl)-1H-pyrazolo[4,3-c]pyridin-3-yl)-2,5-difluorophenyl)-5-ethoxy-2-fluorobenzenesulfonamide]
3.5 | 10.3 | 2.3 | CC(C)n1nc(-c2cc(F)c(NS(=O)(=O)c3cc(Cl)ccc3F)cc2F)c2c(N)ncc([C@H]3CC[C@H](N4CCOCC4)CC3)c21 [Compound A20, N-(4-(4-amino-1-isopropyl-7-((1r,4r)-4-morpholinocyclohexyl)-1H-pyrazolo[4,3-c]pyridin-3-yl)-2,5-difluorophenyl)-5-chloro-2-fluorobenzenesulfonamide]
– | 26.9 | – | CC(C)n1nc(-c2cc(F)c(NS(=O)(=O)c3cc(F)ccc3F)cc2F)c2c(N)ncc([C@H]3CC[C@H](N4CCOCC4)CC3)c21 [Compound A16, N-(4-(4-amino-1-isopropyl-7-((1r,4r)-4-morpholinocyclohexyl)-1H-pyrazolo[4,3-c]pyridin-3-yl)-2,5-difluorophenyl)-2,5-difluorobenzenesulfonamide]
– | 11.1 | – | CC(C)n1nc(-c2cc(F)c(NS(=O)(=O)Cc3ccccc3Cl)cc2F)c2c(N)ncc([C@H]3CC[C@H](N4CCOCC4)CC3)c21 [Compound A19, N-(4-(4-amino-1-isopropyl-7-((1r,4r)-4-morpholinocyclohexyl)-1H-pyrazolo[4,3-c]pyridin-3-yl)-2,5-difluorophenyl)-1-(2-chlorophenyl)methanesulfonamide]
– | – | 0.893 | Cc1ccc(F)c(S(=O)(=O)Nc2cc(F)c(-c3nn(C(C)C)c4c3c(N)ncc4[C@H]3CC[C@H](NC[C@@H](C)F)CC3)cc2F)c1 [Compound A24, N-(4-(4-amino-7-((1R,4r)-4-(((R)-2-fluoropropyl)amino)cyclohexyl)-1-isopropyl-1H-pyrazolo[4,3-c]pyridin-3-yl)-2,5-difluorophenyl)-2-fluoro-5-methylbenzenesulfonamide]
466 | 1650 | – | CC(C)n1nc(-c2cc(F)c(NS(=O)(=O)c3ccccc3F)cc2F)c2c(N)ncc([C@H]3CC[C@@H](N4CCOCC4)CC3)c21 [Compound A14, N-(4-(4-amino-1-isopropyl-7-((1s,4s)-4-morpholinocyclohexyl)-1H-pyrazolo[4,3-c]pyridin-3-yl)-2,5-difluorophenyl)-2-fluorobenzenesulfonamide]

The next lines start with the molecule.

SMILES | IC50 (IRE1α RNase) [nM] | IC50 (XBP1) [nM] | IC50 (IRE1α kinase) [nM]
COCCN[C@H]1CC[C@H](c2cnc(N)c3c(-c4cc(F)c(NS(=O)(=O)c5cc(OC(F)F)ccc5Cl)cc4F)nn(C(C)C)c32)CC1 [Compound A1, N-(4-(4-amino-1-isopropyl-7-((1r,4r)-4-((2-methoxyethyl)amino)cyclohexyl)-1H-pyrazolo[4,3-c]pyridin-3-yl)-2,5-difluorophenyl)-2-chloro-5-(difluoromethoxy)benzenesulfonamide] | 2.7 | 14.5 | –
CCOc1ccc(F)c(S(=O)(=O)Nc2cc(F)c(-c3nn(C(C)C)c4c3c(N)ncc4[C@H]3CC[C@H](NCC(C)F)CC3)cc2F)c1 (stereo partly shown) [Compound A9, N-(4-(4-amino-7-((1r,4r)-4-((2-fluoropropyl)amino)cyclohexyl)-1-isopropyl-1H-pyrazolo[4,3-c]pyridin-3-yl)-2,5-difluorophenyl)-5-ethoxy-2-fluorobenzenesulfonamide] | – | 7.5 | –
[2H]C([2H])([2H])Oc1ccc(F)c(S(=O)(=O)Nc2cc(F)c(-c3nn(C(C)C)c4c3c(N)ncc4[C@H]3CC[C@H](NCCOC)CC3)cc2F)c1 [Compound A2, N-(4-(4-amino-1-isopropyl-7-((1r,4r)-4-((2-methoxyethyl)amino)cyclohexyl)-1H-pyrazolo[4,3-c]pyridin-3-yl)-2,5-difluorophenyl)-2-fluoro-5-(methoxy-d3)benzenesulfonamide] | 4.8 | 12.2 | –
COC(C)(C)CN[C@H]1CC[C@H](c2cnc(N)c3c(-c4cc(F)c(NS(=O)(=O)c5ccccc5F)cc4F)nn(C(C)C)c32)CC1 [Compound A13, N-(4-(4-amino-1-isopropyl-7-((1r,4r)-4-((2-methoxy-2-methylpropyl)amino)cyclohexyl)-1H-pyrazolo[4,3-c]pyridin-3-yl)-2,5-difluorophenyl)-2-fluorobenzenesulfonamide] | 15.5 | 17 | 3.6
CCOc1ccc(F)c(S(=O)(=O)Nc2cc(F)c(-c3nn(C(C)C)c4c3c(N)ncc4[C@H]3CC[C@H](NCC(C)(C)OC)CC3)cc2F)c1 [Compound A6, N-(4-(4-amino-1-isopropyl-7-((1r,4r)-4-((2-methoxy-2-methylpropyl)amino)cyclohexyl)-1H-pyrazolo[4,3-c]pyridin-3-yl)-2,5-difluorophenyl)-5-ethoxy-2-fluorobenzenesulfonamide] | – | 6.7 | –
Cc1ccc(F)c(S(=O)(=O)Nc2cc(F)c(-c3nn(C(C)C)c4c3c(N)ncc4[C@H]3CC[C@H](NC[C@H](C)F)CC3)cc2F)c1 [Compound A23, N-(4-(4-amino-7-((1S,4r)-4-(((S)-2-fluoropropyl)amino)cyclohexyl)-1-isopropyl-1H-pyrazolo[4,3-c]pyridin-3-yl)-2,5-difluorophenyl)-2-fluoro-5-methylbenzenesulfonamide] | – | – | 1.3
COCCN[C@H]1CC[C@H](c2cnc(N)c3c(-c4cc(F)c(NS(=O)(=O)c5cc(OC(F)(F)F)ccc5Cl)cc4F)nn(C(C)C)c32)CC1 [Compound A3, N-(4-(4-amino-1-isopropyl-7-((1r,4r)-4-((2-methoxyethyl)amino)cyclohexyl)-1H-pyrazolo[4,3-c]pyridin-3-yl)-2,5-difluorophenyl)-2-chloro-5-(trifluoromethoxy)benzenesulfonamide] | 3.4 | 15 | –
COCCN[C@H]1CC[C@H](c2cnc(N)c3c(-c4cc(F)c(NS(=O)(=O)c5cc(C)ccc5F)cc4F)nn(C(C)C)c32)CC1 [Compound A5, N-(4-(4-amino-1-isopropyl-7-((1r,4r)-4-((2-methoxyethyl)amino)cyclohexyl)-1H-pyrazolo[4,3-c]pyridin-3-yl)-2,5-difluorophenyl)-2-fluoro-5-methylbenzenesulfonamide] | 3.1 | 6.8 | –
CC(C)n1nc(-c2cc(F)c(NS(=O)(=O)c3ccccc3F)cc2F)c2c(N)ncc([C@H]3CC[C@H](NCCOC(F)(F)F)CC3)c21 [Compound A8, N-(4-(4-amino-1-isopropyl-7-((1r,4r)-4-((2-(trifluoromethoxy)ethyl)amino)cyclohexyl)-1H-pyrazolo[4,3-c]pyridin-3-yl)-2,5-difluorophenyl)-2-fluorobenzenesulfonamide] | 17.9 | 39.3 | –
CCOc1ccc(F)c(S(=O)(=O)Nc2cc(F)c(-c3nn(C(C)C)c4c3c(N)ncc4[C@H]3CC[C@H](NC4CC(F)(F)C4)CC3)cc2F)c1 [Compound A7, N-(4-(4-amino-7-((1r,4r)-4-((3,3-difluorocyclobutyl)amino)cyclohexyl)-1-isopropyl-1H-pyrazolo[4,3-c]pyridin-3-yl)-2,5-difluorophenyl)-5-ethoxy-2-fluorobenzenesulfonamide] | – | 6.1 | –
COCCN[C@H]1CC[C@H](c2cnc(N)c3c(-c4cc(F)c(NS(=O)(=O)c5cc(C)ccc5Cl)cc4F)nn(C(C)C)c32)CC1 [Compound A4, N-(4-(4-amino-1-isopropyl-7-((1r,4r)-4-((2-methoxyethyl)amino)cyclohexyl)-1H-pyrazolo[4,3-c]pyridin-3-yl)-2,5-difluorophenyl)-2-chloro-5-methylbenzenesulfonamide] | 2.8 | 3.3 | –
